Common to all, as to experiment: BromoScan selectivity panel (Kd)
For one experiment, the target named is T1, TAF1L(2) (Homo sapiens, UniProt Q8IZX4).
T1 construct: TAF1L(2)
T1 sequence (Q8IZX4 1517-1626 limits assumed): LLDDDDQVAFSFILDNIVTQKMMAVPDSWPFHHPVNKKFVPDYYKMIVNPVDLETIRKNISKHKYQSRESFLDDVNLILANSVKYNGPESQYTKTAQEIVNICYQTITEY
Type of experiment: binding.

In another experiment the target is CBP (Homo sapiens, UniProt Q92793).
Another experiment deals with T2, BRD9 (Homo sapiens, UniProt Q9H8M2).
T2 sequence (Q9H8M2 130-250 limits assumed): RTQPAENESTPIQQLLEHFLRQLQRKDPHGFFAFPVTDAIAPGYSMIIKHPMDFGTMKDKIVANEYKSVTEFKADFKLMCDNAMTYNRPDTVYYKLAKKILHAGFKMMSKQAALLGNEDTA
The format is binding.

For the next experiment, the target named is T3, BRD1 (Homo sapiens, UniProt O95696).
T3 sequence (O95696 556-688 limits assumed): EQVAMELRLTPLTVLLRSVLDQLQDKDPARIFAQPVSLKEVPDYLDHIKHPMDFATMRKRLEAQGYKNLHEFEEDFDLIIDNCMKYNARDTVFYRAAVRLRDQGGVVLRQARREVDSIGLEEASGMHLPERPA
The format is binding.

In the next experiment the target is T4, ATAD2A (Homo sapiens, UniProt Q6PL18).
T4 sequence (Q6PL18 981-1108 limits assumed): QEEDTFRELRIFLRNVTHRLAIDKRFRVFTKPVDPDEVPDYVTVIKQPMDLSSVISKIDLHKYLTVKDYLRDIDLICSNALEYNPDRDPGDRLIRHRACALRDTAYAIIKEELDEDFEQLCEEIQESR
The format is binding.

The target in the next experiment is T5, TRIM33(PHD Bromo.) (Homo sapiens, UniProt Q9UPN9).
T5 construct: TRIM33(PHD, Bromo.); TRIM33(PHD Bromo.); fused on or other part: The vendor panel's detection tag or display handle
T5 sequence (Q9UPN9 1-1127): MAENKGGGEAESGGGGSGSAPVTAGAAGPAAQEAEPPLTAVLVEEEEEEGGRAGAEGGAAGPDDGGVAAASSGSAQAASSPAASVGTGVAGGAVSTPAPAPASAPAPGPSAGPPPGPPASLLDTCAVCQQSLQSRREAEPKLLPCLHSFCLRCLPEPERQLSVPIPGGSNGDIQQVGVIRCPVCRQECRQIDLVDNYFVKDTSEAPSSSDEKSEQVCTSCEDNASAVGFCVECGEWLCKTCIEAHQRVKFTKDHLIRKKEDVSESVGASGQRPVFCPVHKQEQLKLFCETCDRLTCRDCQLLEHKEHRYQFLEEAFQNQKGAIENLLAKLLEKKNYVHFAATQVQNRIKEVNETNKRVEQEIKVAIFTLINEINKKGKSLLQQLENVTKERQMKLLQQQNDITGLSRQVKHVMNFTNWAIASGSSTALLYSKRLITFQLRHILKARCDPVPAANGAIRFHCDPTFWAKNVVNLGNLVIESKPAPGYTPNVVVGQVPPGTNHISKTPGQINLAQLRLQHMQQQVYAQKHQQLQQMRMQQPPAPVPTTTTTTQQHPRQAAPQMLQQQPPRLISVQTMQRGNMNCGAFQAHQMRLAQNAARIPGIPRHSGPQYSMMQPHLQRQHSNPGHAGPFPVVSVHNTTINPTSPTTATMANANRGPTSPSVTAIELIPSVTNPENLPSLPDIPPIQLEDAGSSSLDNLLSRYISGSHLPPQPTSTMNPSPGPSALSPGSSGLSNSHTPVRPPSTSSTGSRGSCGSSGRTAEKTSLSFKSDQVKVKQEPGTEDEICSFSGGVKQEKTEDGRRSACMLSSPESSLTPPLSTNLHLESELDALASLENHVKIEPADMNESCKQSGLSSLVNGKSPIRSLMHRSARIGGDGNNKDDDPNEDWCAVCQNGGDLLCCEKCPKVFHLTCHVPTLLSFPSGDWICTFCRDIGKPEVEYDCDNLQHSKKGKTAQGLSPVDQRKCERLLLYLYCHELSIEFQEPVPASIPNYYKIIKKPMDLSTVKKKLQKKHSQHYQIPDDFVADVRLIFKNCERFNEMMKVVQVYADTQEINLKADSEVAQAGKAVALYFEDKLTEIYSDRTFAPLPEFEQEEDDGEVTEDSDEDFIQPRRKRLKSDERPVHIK
Type of experiment: binding.

A further experiment has as its target T6, BRPF1 (Homo sapiens, UniProt P55201).
T6 sequence (P55201 626-740 limits assumed): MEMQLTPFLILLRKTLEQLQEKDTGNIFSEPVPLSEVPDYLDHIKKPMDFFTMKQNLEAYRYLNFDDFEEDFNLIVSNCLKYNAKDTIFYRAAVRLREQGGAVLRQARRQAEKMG
Type of experiment: binding.

Another experiment addresses T7, BAZ2A (Homo sapiens, UniProt Q9UIF9).
T7 sequence (Q9UIF9 1796-1899 limits assumed): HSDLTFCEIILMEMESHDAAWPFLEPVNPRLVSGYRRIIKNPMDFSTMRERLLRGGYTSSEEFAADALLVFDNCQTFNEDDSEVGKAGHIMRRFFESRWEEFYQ
The format is binding.

For orientation: Kd means the concentration at which binding is half-saturated.

Like-named read-outs stand apart in the source and are kept apart here.

CBP, sequence (Q92793 1081-1197 limits assumed): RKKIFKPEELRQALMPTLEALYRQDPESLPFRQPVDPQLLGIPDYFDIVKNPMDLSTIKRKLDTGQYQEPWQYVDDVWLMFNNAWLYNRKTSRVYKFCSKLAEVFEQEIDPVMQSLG

Turning to `Cc1noc(C)c1-c1ccc(-c2nc3cnccn3c2NC(C)(C)C)cc1` [UMB32, N-(tert-butyl)-2-(4-(3,5-dimethylisoxazol-4-yl)phenyl)imidazo[1,2-a]pyrazin-3-amine], the Kd at TAF1L(2) (Table 8, read-out: Kd (nM) TAF1L(2)) is 1300 nM; on TAF1L(2) (Table 9, read-out: BromoScan Kd, nM TAF1L(2)), 1300 nM; at CBP (read-out: BromoScan Kd, nM CREBBP, Table 9), 4500 nM; at CBP (read-out: Kd (nM) CBP, Table 8), 4500 nM; on BRD9 (Table 8, read-out: Kd (nM) BRD9), no less than 40000 nM; at BRD9 (Table 9, read-out: BromoScan Kd, nM BRD9), no less than 40000 nM. Also, the Kd was no less than 40000 nM on BRD1 (Table 8, read-out: Kd (nM) BRD1); no less than 40000 nM on BRD1 (Table 9, read-out: BromoScan Kd, nM BRD1); no less than 40000 nM on ATAD2A (Table 8, read-out: Kd (nM) ATAD2A); no less than 40000 nM at ATAD2A (Table 9, read-out: BromoScan Kd, nM ATAD2A); no less than 40000 nM at TRIM33(PHD Bromo.) (Table 8, read-out: Kd (nM) TRIM33(PHD Bromo.)); no less than 40000 nM on TRIM33(PHD Bromo.) (Table 9, read-out: BromoScan Kd, nM TRIM33(PHD, Bromo.)). In addition, the Kd at BRPF1 (Table 8, read-out: Kd (nM) BRPF1) was no less than 40000 nM; at BRPF1 (Table 9, read-out: BromoScan Kd, nM BRPF1), no less than 40000 nM; at BAZ2A (Table 8, read-out: Kd (nM) BAZ2A), no less than 40000 nM; at BAZ2A (Table 9, read-out: BromoScan Kd, nM BAZ2A), no less than 40000 nM.

The values are drawn from patent publication US9975896B2, “Inhibitors of transcription factors and uses thereof” (Dana-Farber Cancer Institute, Inc., priority 2013, dated 2018).
